# Results as given in US9718828B2 (MERCK SHARP & DOHME CORP., priority 2011, dated 2017).
# Where a name gives a salt, the structure may show the parent alone.
# Target: Btk enzyme (His-Btk) (Homo sapiens (Human), UniProt Q06187)
# Test: Btk enzyme activity, IMAP fluorescence polarization assay (Assay Method A)
# Conditions: not given
# Btk enzyme (His-Btk), sequence (Q06187 whole entry): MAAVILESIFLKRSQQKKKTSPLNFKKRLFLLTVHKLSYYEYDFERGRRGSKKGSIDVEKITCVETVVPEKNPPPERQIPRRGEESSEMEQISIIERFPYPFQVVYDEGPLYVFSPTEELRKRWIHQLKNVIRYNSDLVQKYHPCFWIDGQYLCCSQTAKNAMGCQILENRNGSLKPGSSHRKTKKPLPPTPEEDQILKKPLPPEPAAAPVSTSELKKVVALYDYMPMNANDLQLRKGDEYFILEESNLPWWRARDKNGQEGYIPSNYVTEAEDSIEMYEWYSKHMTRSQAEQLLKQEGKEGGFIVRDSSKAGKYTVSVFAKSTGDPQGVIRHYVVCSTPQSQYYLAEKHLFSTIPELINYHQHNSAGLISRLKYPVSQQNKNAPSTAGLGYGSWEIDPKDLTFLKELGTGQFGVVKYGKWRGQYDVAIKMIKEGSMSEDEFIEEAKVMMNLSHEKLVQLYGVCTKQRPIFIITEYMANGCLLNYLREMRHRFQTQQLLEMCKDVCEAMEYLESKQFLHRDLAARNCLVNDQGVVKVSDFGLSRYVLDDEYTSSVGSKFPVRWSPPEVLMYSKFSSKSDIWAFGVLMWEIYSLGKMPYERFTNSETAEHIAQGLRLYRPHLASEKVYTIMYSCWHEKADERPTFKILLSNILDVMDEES
row,SMILES,EC50
1,"C[C@@H]1CC[C@@H](c2nc(-c3ccc(C(=O)Nc4cc(C(F)(F)F)ccn4)cc3)c3c(N)nccn23)CN1C(=O)C1CC1 (relative stereo) [Example 188, 4-(8-amino-3-((trans)-1-(cyclopropanecarbonyl)-6-methylpiperidin-3-yl)imidazo[1,5-a]pyrazin-1-yl)-N-(4-(trifluoromethyl)pyridin-2-yl)benzamide, TFA salt]",10 to 100 nM
2,"CCC(=O)N1CCC[C@@H](c2nc(-c3ccc(C(=O)Nc4nc5c(s4)CC(C)CC5)cc3)c3c(N)nccn23)C1 (stereo in doubt) [Example 65, (R)-4-(8-amino-3-(1-propionylpiperidin-3-yl)imidazo[1,5-a]pyrazin-1-yl)-N-(6-methyl-4,5,6,7-tetrahydrobenzo[d]thiazol-2-yl)benzamide]",< 10 nM
3,"Nc1nccn2c1c(-c1ccc(C(=O)Nc3ccccn3)cc1)nc2[C@H]1CC[C@H](O)CC1 [Example 1, 4-(8-amino-3-((trans)-4-hydroxycyclohexyl)imidazo[1,5-a]pyrazin-1-yl)-N-(pyridin-2-yl)benzamide]",10 to 100 nM

# Same assay, conditions: read-out: EC50 Btk activity values - Assay Method A; IMAP-FP, 60 min pre-incubation, 5 μM ATP; class 100-1000 is given as ≧100 nM-<1 μM
row,EC50,SMILES
1,< 10 nM,"CCOCCC(=O)N1C[C@H](c2nc(-c3ccc(C(=O)Nc4cc(C(F)(F)F)ccn4)cc3)c3c(N)nccn23)CC[C@@H]1C (relative stereo) [Example 189, 4-(8-amino-3-((cis)-1-(3-ethoxypropanoyl)-6-methylpiperidin-3-yl)imidazo[1,5-a]pyrazin-1-yl)-N-(4-(trifluoromethyl)pyridin-2-yl)benzamide, TFA salt]"
2,< 10 nM,"C[C@H]1CC[C@@H](c2nc(-c3ccc(C(=O)Nc4ccccn4)cc3)c3c(N)nccn23)CN1C(=O)C1CC1 (relative stereo) [Example 192, 4-(8-amino-3-((cis)-1-(cyclopropanecarbonyl)-6-methylpiperidin-3-yl)imidazo[1,5-a]pyrazin-1-yl)-N-(pyridin-2-yl)benzamide, TFA salt]"
3,< 10 nM,"CCNC(=O)N1C[C@H](c2nc(-c3ccc(C(=O)Nc4ccccn4)cc3)c3c(N)nccn23)CC[C@@H]1C (relative stereo) [Example 193, (cis)-5-(8-amino-1-(4-(pyridin-2-ylcarbamoyl)phenyl)imidazo [1,5-a]pyrazin-3-yl)-N-ethyl-2-methylpiperidine-1-carboxamide, TFA salt]"
4,< 10 nM,"CSCCC(=O)N1C[C@H](c2nc(-c3ccc(C(=O)Nc4cc(C(F)(F)F)ccn4)cc3)c3c(N)nccn23)CC[C@@H]1C (relative stereo) [Example 195, 4-(8-amino-3-((cis)-6-methyl-1-(3-(methylthio)propanoyl)piperidin-3-yl)imidazo[1,5-a]pyrazin-1-yl)-N-(4-(trifluoromethyl)pyridin-2-yl)benzamide, TFA salt]"
5,< 10 nM,"C[C@H]1CC[C@@H](c2nc(-c3ccc(C(=O)Nc4cc(C(F)(F)F)ccn4)cc3)c3c(N)nccn23)CN1C(=O)C1CC1 (relative stereo) [Example 202, 4-(8-amino-3-((cis)-1-(cyclopropanecarbonyl)-6-methylpiperidin-3-yl)imidazo[1,5-a]pyrazin-1-yl)-N-(4-(trifluoromethyl)pyridin-2-yl)benzamide, TFA salt]"
6,< 10 nM,"CC(C)C(=O)N1C[C@H](c2nc(-c3ccc(C(=O)Nc4ccccn4)cc3)c3c(N)nccn23)CC[C@@H]1C (relative stereo) [Example 205, 4-(8-amino-3-((cis)-1-isobutyryl-6-methylpiperidin-3-yl)imidazo[1,5-a]pyrazin-1-yl)-N-(pyridin-2-yl)benzamide, TFA salt]"
7,< 10 nM,"Nc1nccn2c1c(-c1ccc(C(=O)Nc3cc(C(F)(F)F)ccn3)cc1)nc2[C@H]1CC[C@H](O)CC1 [Example 2, 4-(8-amino-3-((trans)-4-hydroxycyclohexyl)imidazo[1,5-a]pyrazin-1-yl)-N-(4-(trifluoromethyl)pyridin-2-yl)benzamide]"
8,< 10 nM,"CCc1cnc(NC(=O)c2ccc(-c3nc([C@H]4CC[C@H](O)CC4)n4ccnc(N)c34)cc2)s1 [Example 4, 4-(8-amino-3-((trans)-4-hydroxycyclohexyl)imidazo[1,5-a]pyrazin-1-yl)-N-(5-ethylthiazol-2-yl)benzamide]"

# More lines, now with the values behind:
row,SMILES,EC50
1,"C[C@H]1CC[C@@H](c2nc(-c3ccc(C(=O)Nc4cc(C(F)(F)F)ccn4)cc3)c3c(N)nccn23)CN1C(=O)C1CCC1(F)F (relative stereo) [Example 190, 4-(8-amino-3-((cis)-1-(2,2-difluorocyclobutanecarbonyl)-6-methylpiperidin-3-yl)imidazo[1,5-a]pyrazin-1-yl)-N-(4-(trifluoromethyl)pyridin-2-yl)benzamide, TFA salt]",< 10 nM
2,"C[C@H]1CC[C@@H](c2nc(-c3ccc(C(=O)Nc4ccccn4)cc3)c3c(N)nccn23)CN1C(=O)CC1CC1 (relative stereo) [Example 191, 4-(8-amino-3-((cis)-1-(2-cyclopropylacetyl)-6-methylpiperidin-3-yl)imidazo[1,5-a]pyrazin-1-yl)-N-(pyridin-2-yl)benzamide, TFA salt]",< 10 nM
3,"C[C@H]1CC[C@@H](c2nc(-c3ccc(C(=O)Nc4cc(C(F)(F)F)ccn4)cc3)c3c(N)nccn23)CN1C(=O)C1CCCO1 (relative stereo) [Example 194, 4-(8-amino-3-((cis)-6-methyl-1-(tetrahydrofuran-2-carbonyl)piperidin-3-yl)imidazo[1,5-a]pyrazin-1-yl)-N-(4-(trifluoromethyl)pyridin-2-yl)benzamide, TFA salt]",< 10 nM
4,"C[C@H]1CC[C@@H](c2nc(-c3ccc(C(=O)Nc4cc(C5CC5)ccn4)cc3)c3c(N)nccn23)CN1C(=O)CN1CCOC1=O (relative stereo) [Example 196, 4-(8-amino-3-((cis)-6-methyl-1-(2-(2-oxooxazolidin-3-yl)acetyl)piperidin-3-yl)imidazo[1,5-a]pyrazin-1-yl)-N-(4-cyclopropylpyridin-2-yl)benzamide, TFA salt]",< 10 nM
5,"C[C@H]1CC[C@@H](c2nc(-c3ccc(C(=O)Nc4cc(C5CC5)ccn4)cc3)c3c(N)nccn23)CN1C(=O)C1CCC1 (relative stereo) [Example 197, 4-(8-amino-3-((cis)-1-(cyclobutanecarbonyl)-6-methylpiperidin-3-yl)imidazo[1,5-a]pyrazin-1-yl)-N-(4-cyclopropylpyridin-2-yl)benzamide, TFA salt]",< 10 nM
6,"CSCCC(=O)N1C[C@H](c2nc(-c3ccc(C(=O)Nc4cc(C5CC5)ccn4)cc3)c3c(N)nccn23)CC[C@@H]1C (relative stereo) [Example 198, 4-(8-amino-3-((cis)-6-methyl-1-(3-(methylthio)propanoyl)-piperidin-3-yl)imidazo[1,5-a]pyrazin-1-yl)-N-(4-cyclopropylpyridin-2-yl)benzamide, TFA salt]",< 10 nM
7,"CCOC(=O)N1C[C@H](c2nc(-c3ccc(C(=O)Nc4cc(C5CC5)ccn4)cc3)c3c(N)nccn23)CC[C@@H]1C (relative stereo) [Example 199, (cis)-ethyl 5-(8-amino-1-(4-(4-cyclopropylpyridin-2-ylcarbamoyl)phenyl)imidazo [1,5-a]pyrazin-3-yl)-2-methylpiperidine-1-carboxylate, TFA salt]",< 10 nM
8,"CCC(=O)C(=O)N1C[C@H](c2nc(-c3ccc(C(=O)Nc4cc(C(F)(F)F)ccn4)cc3)c3c(N)nccn23)CC[C@@H]1C (relative stereo) [Example 200, 4-(8-amino-3-((cis)-6-methyl-1-(2-oxobutanoyl)piperidin-3-yl)imidazo[1,5-a]pyrazin-1-yl)-N-(4-(trifluoromethyl)-pyridin-2-yl)benzamide, TFA salt]",< 10 nM
9,"CCNC(=O)N1C[C@H](c2nc(-c3ccc(C(=O)Nc4cc(C(F)(F)F)ccn4)cc3)c3c(N)nccn23)CC[C@@H]1C (relative stereo) [Example 201, (cis)-5-(8-amino-1-(4-(4-(trifluoromethyl)pyridin-2-ylcarbamoyl)phenyl)imidazo [1,5-a]pyrazin-3-yl)-N-ethyl-2-methylpiperidine-1-carboxamide, TFA salt]",< 10 nM
10,"C[C@H]1CC[C@@H](c2nc(-c3ccc(C(=O)Nc4ccccn4)cc3)c3c(N)nccn23)CN1C(=O)C1CC(F)(F)C1 (relative stereo) [Example 203, 4-(8-amino-3-((cis)-1-(3,3-difluorocyclobutanecarbonyl)-6-methylpiperidin-3-yl)imidazo[1,5-a]pyrazin-1-yl)-N-(pyridin-2-yl)benzamide, TFA salt]",< 10 nM
11,"C[C@H]1CC[C@@H](c2nc(-c3ccc(C(=O)Nc4ccccn4)cc3)c3c(N)nccn23)CN1C(=O)C1CCC1 (relative stereo) [Example 204, 4-(8-amino-3-((cis)-1-(cyclobutanecarbonyl)-6-methylpiperidin-3-yl)imidazo[1,5-a]pyrazin-1-yl)-N-(pyridin-2-yl)benzamide, TFA salt]",< 10 nM
12,"CCOCCC(=O)N1C[C@H](c2nc(-c3ccc(C(=O)Nc4ccccn4)cc3)c3c(N)nccn23)CC[C@@H]1C (relative stereo) [Example 206, 4-(8-amino-3-((cis)-1-(3-ethoxypropanoyl)-6-methylpiperidin-3-yl)imidazo[1,5-a]pyrazin-1-yl)-N-(pyridin-2-yl)benzamide, TFA salt]",< 10 nM
13,"CCC(=O)N1C[C@H](c2nc(-c3ccc(C(=O)Nc4ccccn4)cc3)c3c(N)nccn23)CC[C@@H]1C (relative stereo) [Example 207, 4-(8-amino-3-((cis)-6-methyl-1-propionylpiperidin-3-yl)imidazo[1,5-a]pyrazin-1-yl)-N-(pyridin-2-yl)benzamide, TFA salt]",< 10 nM
14,"CCCc1ccnc(NC(=O)c2ccc(-c3nc([C@H]4CC[C@H](O)CC4)n4ccnc(N)c34)cc2)c1 [Example 3, 4-(8-amino-3-((trans)-4-hydroxycyclohexyl)imidazo[1,5-a]pyrazin-1-yl)-N-(4-propylpyridin-2-yl)benzamide]",< 10 nM
15,"Cc1ccnc(NC(=O)c2ccc(-c3nc([C@H]4CC[C@H](O)CC4)n4ccnc(N)c34)cc2)c1 [Example 5, 4-(8-amino-3-((trans)-4-hydroxycyclohexyl)imidazo[1,5-a]pyrazin-1-yl)-N-(4-methylpyridin-2-yl)benzamide]",< 10 nM
